In brackets after ≈: the same amount, converted by molar mass.
Columns and labels:
Streptococcus pneumoniae [1] = experiment: Antibacterial activity against Streptococcus pneumoniae PBS1399; assay type: functional
Haemophilus influenzae [2] = experiment: Antibacterial activity against Haemophilus influenzae PBS981 infected in CD-1 mouse assessed as reduction in bacterial load in lungs administered intravenously as single dose after 2 hrs of infection measured after 24 hrs post treatment; assay type: functional; details: PBS981, iv
Streptococcus pneumoniae [3] = experiment: Antibacterial activity against Streptococcus pneumoniae PBS1399 infected in mouse assessed as protection against bacterial infection by measuring mouse survival administered intravenously as single dose after 2 hrs of infection measured on day 7; assay type: functional; details: PBS1399, iv, read-out: PD50
Haemophilus influenzae [4] = experiment: Antibacterial activity against Haemophilus influenzae PBS981; assay type: functional
[5] = Drug excretion in human urine at 36.6 uCi, po administered as single dose; assay type: ADME, organism-based; details: in vivo
[6] = Oral bioavailability in human 300 mg; assay type: ADME, organism-based; details: in vivo
[7] = Cmax in human at 300 mg, po; assay type: ADME; set-up: dose 300 mg, route oral; details: in vivo
[8] = Half life in human at 300 mg, po; details: in vivo
[9] = Tmax in human at 300 mg, po; assay type: ADME; details: in vivo
Clostridioides difficile = experiment: Antibacterial activity against Clostridium difficile infected in hamster model assessed as median survival time; assay type: functional
[10] = AUC(0 to 24 hrs) in human at 100 mg, iv; assay type: ADME; set-up: dose 100 mg, time < 24 hr, route intravenous; details: in vivo
[11] = Cmax in human at 100 mg, iv administered as infusion; assay type: ADME, organism-based; set-up: dose 100 mg, route intravenous; details: in vivo
[12] = Protein binding in human plasma at 0.1 to 10 ug/ml; assay type: ADME, cell-free; details: read-out: PPB (converted)
[13] = AUC(0 to 24 hrs) in human at 300 mg, po; assay type: ADME; set-up: time < 24 hr, dose 300 mg, route oral; details: in vivo
[14] = Volume of distribution in human at 100 mg, iv or 300 mg, po; assay type: ADME, organism-based; details: in vivo
[15] = Systemic clearance in human at 100 mg, iv or 300 mg, po; assay type: ADME, organism-based; details: in vivo
[16] = Terminal half life in human at 100 mg, iv or 300 mg, po; details: in vivo
[17] = Drug excretion in human feces at 36.6 uCi, po administered as single dose; assay type: ADME, organism-based; details: in vivo
OATP1B1 = OATP1B1 (Homo sapiens, UniProt Q9Y6L6); experiment: Inhibition of OATP1B1 (unknown origin) in HEK293 cells at 100 uM; assay type: cell-based; details: HEK293 cells expressing OATP1B1
OATP1B1, sequence (Q9Y6L6 whole entry): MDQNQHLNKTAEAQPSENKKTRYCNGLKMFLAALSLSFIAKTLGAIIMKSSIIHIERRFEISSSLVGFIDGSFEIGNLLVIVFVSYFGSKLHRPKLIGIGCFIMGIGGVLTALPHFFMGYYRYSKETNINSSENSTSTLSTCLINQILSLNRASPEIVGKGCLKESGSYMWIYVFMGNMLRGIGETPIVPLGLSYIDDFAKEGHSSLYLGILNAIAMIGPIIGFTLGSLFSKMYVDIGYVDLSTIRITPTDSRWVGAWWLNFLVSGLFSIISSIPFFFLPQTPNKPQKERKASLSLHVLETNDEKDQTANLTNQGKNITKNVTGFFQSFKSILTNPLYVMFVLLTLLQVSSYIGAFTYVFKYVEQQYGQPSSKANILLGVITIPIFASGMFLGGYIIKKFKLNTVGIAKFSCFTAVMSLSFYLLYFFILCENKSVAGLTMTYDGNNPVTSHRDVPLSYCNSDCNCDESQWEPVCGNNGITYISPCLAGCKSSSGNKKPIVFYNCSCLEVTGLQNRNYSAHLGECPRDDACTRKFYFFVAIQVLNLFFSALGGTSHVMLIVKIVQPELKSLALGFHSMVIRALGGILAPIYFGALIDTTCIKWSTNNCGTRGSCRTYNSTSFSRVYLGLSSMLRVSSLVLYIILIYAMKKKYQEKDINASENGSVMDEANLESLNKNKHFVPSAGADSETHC

OAT1 (SLC22A6) = OAT1 (SLC22A6) (Homo sapiens, UniProt Q4U2R8); experiment: Inhibition of human OAT1 expressed in HEK293 cells at 25 uM; assay type: cell-based
OAT1 (SLC22A6), sequence (Q4U2R8 whole entry): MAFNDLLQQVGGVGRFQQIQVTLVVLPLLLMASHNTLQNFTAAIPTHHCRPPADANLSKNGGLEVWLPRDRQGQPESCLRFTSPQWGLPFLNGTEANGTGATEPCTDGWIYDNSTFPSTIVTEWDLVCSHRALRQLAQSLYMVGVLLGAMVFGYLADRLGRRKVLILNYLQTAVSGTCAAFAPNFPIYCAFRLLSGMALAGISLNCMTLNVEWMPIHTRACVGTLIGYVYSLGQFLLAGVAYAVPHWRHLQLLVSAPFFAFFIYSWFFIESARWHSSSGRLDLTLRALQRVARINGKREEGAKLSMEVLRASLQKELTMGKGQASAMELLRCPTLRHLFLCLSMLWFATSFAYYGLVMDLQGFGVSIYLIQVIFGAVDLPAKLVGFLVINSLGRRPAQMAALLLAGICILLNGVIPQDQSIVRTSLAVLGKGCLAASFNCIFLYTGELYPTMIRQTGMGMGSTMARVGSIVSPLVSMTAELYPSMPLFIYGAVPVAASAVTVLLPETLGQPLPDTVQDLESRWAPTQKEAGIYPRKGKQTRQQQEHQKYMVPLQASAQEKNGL

[18] = Fraction absorbed in human urine at 36.6 uCi, po administered as single dose; assay type: ADME, organism-based; details: in vivo
OATP1B3 = OATP1B3 (Homo sapiens, UniProt Q9NPD5); experiment: Inhibition of OATP1B3 (unknown origin) in HEK293 cells at 100 uM; assay type: cell-based; details: HEK293 cells expressing OATP1B3
OATP1B3, sequence (Q9NPD5 whole entry): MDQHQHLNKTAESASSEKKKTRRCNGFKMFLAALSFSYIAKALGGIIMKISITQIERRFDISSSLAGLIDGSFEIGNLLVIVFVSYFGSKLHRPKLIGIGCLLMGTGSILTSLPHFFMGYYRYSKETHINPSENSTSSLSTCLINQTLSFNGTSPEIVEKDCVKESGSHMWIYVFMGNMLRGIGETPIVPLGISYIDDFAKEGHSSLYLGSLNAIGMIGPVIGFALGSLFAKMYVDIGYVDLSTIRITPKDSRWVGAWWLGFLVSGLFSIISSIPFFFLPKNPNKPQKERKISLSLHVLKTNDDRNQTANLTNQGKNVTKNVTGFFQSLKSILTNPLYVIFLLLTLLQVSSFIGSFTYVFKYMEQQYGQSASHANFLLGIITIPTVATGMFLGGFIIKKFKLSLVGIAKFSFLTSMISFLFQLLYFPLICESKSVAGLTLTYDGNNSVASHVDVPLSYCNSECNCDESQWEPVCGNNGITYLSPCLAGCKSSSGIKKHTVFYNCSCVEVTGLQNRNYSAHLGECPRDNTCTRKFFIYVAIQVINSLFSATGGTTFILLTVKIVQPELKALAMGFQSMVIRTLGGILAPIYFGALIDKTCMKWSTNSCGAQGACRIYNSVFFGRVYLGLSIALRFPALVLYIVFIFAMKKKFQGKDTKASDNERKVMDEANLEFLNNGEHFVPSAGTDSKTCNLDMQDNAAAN

[19] = Systemic clearance in human at 50 mg, iv q12h; assay type: ADME, organism-based; details: in vivo
Staphylococcus aureus [20] = experiment: Antibacterial activity against Staphylococcus aureus USA300 in mouse thigh wound infection model assessed as reduction in bacterial load administered intravenously as single dose after 2 hrs of infection measured after 24 hrs post treatment; assay type: functional; details: USA300, iv
Staphylococcus aureus [21] = experiment: Antibacterial activity against Staphylococcus aureus USA400 in mouse thigh wound infection model assessed as reduction in bacterial load administered intravenously as single dose after 2 hrs of infection measured after 24 hrs post treatment; assay type: functional; details: USA400, iv
Staphylococcus aureus [22] = experiment: Antibacterial activity against Staphylococcus aureus USA400; assay type: functional
[23] = Cmax in human at 50 mg, iv q12h; assay type: ADME, organism-based; set-up: dose 50 mg, route intravenous; details: in vivo
[24] = Protein binding in human plasma; assay type: ADME, cell-free; details: read-out: PPB
[25] = Terminal half life in human at 50 mg, iv q12h; assay type: ADME, organism-based; details: in vivo, read-out: beta t1/2
Staphylococcus aureus [26] = experiment: Antibacterial activity against Staphylococcus aureus USA300; assay type: functional
[27] = AUC(0 to 24 hrs) in human at 50 mg, iv q12h; assay type: ADME, organism-based; set-up: dose 50 mg, time < 24 hr, route intravenous; details: in vivo
[28] = Cmax in human at 100 mg, po q12h; assay type: ADME, organism-based; set-up: dose 100 mg, route oral; details: in vivo
[29] = Cmax in human at 1.5 mg/kg, iv q24h; assay type: ADME, organism-based; set-up: dose 1.5 mg/kg, route intravenous; details: in vivo
[30] = Oral bioavailability in human at 100 mg administered q12h; assay type: ADME, organism-based; details: in vivo
[31] = AUC(0 to 24 hrs) in human at 100 mg, po q12h; assay type: ADME, organism-based; set-up: time < 24 hr, dose 100 mg, route oral; details: in vivo
[32] = Terminal half life in human at 1.5 mg/kg, iv q24h or 100 mg, po q12h; assay type: ADME, organism-based; details: in vivo, read-out: beta t1/2
[33] = AUC(0 to 24 hrs) in human at 1.5 mg/kg, iv q24h; assay type: ADME, organism-based; set-up: dose 1.5 mg/kg, time < 24 hr, route intravenous; details: in vivo
[34] = Systemic clearance in human at 1.5 mg/kg, iv q24h or 100 mg, po q12h; assay type: ADME, organism-based; details: in vivo

CO/N=C(\C(=O)N[C@@H]1C(=O)N2C(C(=O)O)=C(CSc3nc(=O)c(O)nn3C)CS[C@H]12)c1csc(N)n1 [CEFTRIAXONE]
MIC (Streptococcus pneumoniae [1]): 0.015 µg/mL (≈ 0.027 µM)
ED50 (Haemophilus influenzae [2]): 0.1 mg/kg
ED50 (Streptococcus pneumoniae [3]): 0.37 mg/kg
MIC (Haemophilus influenzae [4]): < 0.06 µg/mL

C[C@H]1COc2c(N3CCN(C)CC3)c(F)cc3c(=O)c(C(=O)O)cn1c23.C[C@H]1COc2c(N3CCN(C)CC3)c(F)cc3c(=O)c(C(=O)O)cn1c23.O [LEVOFLOXACIN]
ED50 (Haemophilus influenzae [2]): 2.4 mg/kg
ED50 (Streptococcus pneumoniae [3]): > 18 mg/kg
MIC (Haemophilus influenzae [4]): < 0.06 µg/mL

CC(=O)NC[C@H]1CN(c2ccc(N3CCOCC3)c(F)c2)C(=O)O1 [LINEZOLID]
ED50 (Streptococcus pneumoniae [3]): 38.8 mg/kg

CN(C)c1cc([14CH2]NCC(C)(C)C)c(O)c2c1C[C@H]1C[C@H]3[C@@H](N(C)C)C(O)=C(C(N)=O)C(=O)[C@@]3(O)C(O)=C1C2=O
Drug excretion [5]: 14.4 %ID

CN(C)c1cc(CNCC(C)(C)C)c(O)c2c1C[C@H]1C[C@H]3[C@H](N(C)C)C(O)=C(C(N)=O)C(=O)[C@@]3(O)C(O)=C1C2=O.Cc1ccc(S(=O)(=O)O)cc1 [OMADACYCLINE TOSYLATE]
bioavailability [6]: 34.5%
Cmax [7]: 540 ng/mL
half-life [8]: 17 h
Tmax [9]: 3 h

O=C(O)c1cn(C2CC2)c2cc(N3CCNCC3)c(F)cc2c1=O [CIPROFLOXACIN]
ED50 (Haemophilus influenzae [2]): 1.16 mg/kg
MIC (Haemophilus influenzae [4]): < 0.06 µg/mL

CN[C@H](CC(C)C)C(=O)N[C@H]1C(=O)N[C@@H](CC(N)=O)C(=O)N[C@H]2C(=O)N[C@H]3C(=O)N[C@H](C(=O)N[C@H](C(=O)O)c4cc(O)cc(O)c4-c4cc3ccc4O)[C@H](O)c3ccc(c(Cl)c3)Oc3cc2cc(c3O[C@@H]2O[C@H](CO)[C@@H](O)[C@H](O)[C@H]2O[C@H]2C[C@](C)(N)[C@H](O)[C@H](C)O2)Oc2ccc(cc2Cl)[C@H]1O [VANCOMYCIN]
MIC (Streptococcus pneumoniae [1]): 0.5 µg/mL (≈ 0.345 µM)
MST (Clostridioides difficile): 2 days
ED50 (Streptococcus pneumoniae [3]): 3.3 mg/kg

CC[C@H]1OC(=O)[C@H](C)[C@@H](O[C@H]2C[C@@](C)(OC)[C@@H](O)[C@H](C)O2)[C@H](C)[C@@H](O[C@@H]2O[C@H](C)C[C@H](N(C)C)[C@H]2O)[C@](C)(O)C[C@@H](C)CN(C)[C@H](C)[C@@H](O)[C@]1(C)O [AZITHROMYCIN]
MIC (Streptococcus pneumoniae [1]): 0.03 µg/mL (≈ 0.0401 µM)
ED50 (Streptococcus pneumoniae [3]): 3.31 mg/kg

CN(C)c1cc(CNCC(C)(C)C)c(O)c2c1C[C@H]1C[C@H]3[C@H](N(C)C)C(O)=C(C(N)=O)C(=O)[C@@]3(O)C(O)=C1C2=O.Cl
bioavailability [6]: 34.5%
AUC [10]: 8800 ng·h/mL
Cmax [11]: 1800 ng/mL
Cmax [7]: 700 ng/mL
fraction unbound [12]: 0.79
AUC(0-t) at 24 h [13]: 5900 ng·h/mL
Vd [14]: 333 to 640 L
CL [15]: 17.1 L/h
half-life [16]: 17 h

CN(C)c1ccc(O)c2c1C[C@H]1C[C@H]3[C@H](N(C)C)C(O)=C(C(N)=O)C(=O)[C@@]3(O)C(O)=C1C2=O [MINOCYCLINE]
MIC (Streptococcus pneumoniae [1]): 0.25 µg/mL (≈ 0.546 µM)
ED50 (Streptococcus pneumoniae [3]): 3.44 mg/kg

CCCCCCCCCC(=O)N[C@@H](Cc1c[nH]c2ccccc12)C(=O)N[C@@H](CC(N)=O)C(=O)N[C@@H](CC(=O)O)C(=O)N[C@@H]1C(=O)NCC(=O)N[C@@H](CCCN)C(=O)N[C@@H](CC(=O)O)C(=O)N[C@H](C)C(=O)N[C@@H](CC(=O)O)C(=O)NCC(=O)N[C@H](CO)C(=O)N[C@@H]([C@H](C)CC(=O)O)C(=O)N[C@@H](CC(=O)c2ccccc2N)C(=O)O[C@@H]1C [DAPTOMYCIN]
MIC (Streptococcus pneumoniae [1]): 0.25 µg/mL (≈ 0.154 µM)
ED50 (Streptococcus pneumoniae [3]): > 100 mg/kg

CN(C)c1cc([14CH2]NCC(C)(C)C)c(O)c2c1C[C@H]1C[C@H]3[C@H](N(C)C)C(O)=C(C(N)=O)C(=O)[C@@]3(O)C(O)=C1C2=O
Drug excretion [17]: 81.1 %ID
inhibition at 100 µM (OATP1B1): 10.1%
inhibition at 25 µM (OAT1 (SLC22A6)): 32.1%
Fabs [18]: 40%
inhibition at 100 µM (OATP1B3): 10.1%
Drug excretion [5]: 14.4 %ID

CCC[C@@H]1C[C@@H](C(=O)N[C@@H]([C@H]2O[C@H](SC)[C@H](O)[C@@H](O)[C@H]2O)[C@H](C)Cl)N(C)C1 [CLINDAMYCIN]
MST (Clostridioides difficile): 4 days

CN(C)c1cc(NC(=O)CNC(C)(C)C)c(O)c2c1C[C@H]1C[C@H]3[C@H](N(C)C)C(O)=C(C(N)=O)C(=O)[C@@]3(O)C(O)=C1C2=O [TIGECYCLINE]
CL [19]: 23.8 L/h
ED50 (Staphylococcus aureus [20]): 0.45 mg/kg
MIC (Streptococcus pneumoniae [1]): 0.125 µg/mL (≈ 0.213 µM)
ED50 (Staphylococcus aureus [21]): 0.46 mg/kg
MIC (Staphylococcus aureus [22]): 0.06 µg/mL (≈ 0.102 µM)
Cmax [23]: 870 ng/mL
fraction unbound [24]: 0.13 to 0.31
half-life [25]: 37 to 66 h
ED50 (Haemophilus influenzae [2]): 2.31 mg/kg
MIC (Staphylococcus aureus [26]): 0.125 µg/mL (≈ 0.213 µM)
AUC [27]: 4700 ng·h/mL
ED50 (Streptococcus pneumoniae [3]): 0.91 mg/kg
MIC (Haemophilus influenzae [4]): 0.25 µg/mL (≈ 0.427 µM)

C[C@H]1c2cccc(O)c2C(=O)C2=C(O)[C@]3(O)C(=O)C(C(N)=O)=C(O)[C@@H](N(C)C)[C@@H]3[C@@H](O)[C@@H]21.O [DOXYCYCLINE]
MIC (Streptococcus pneumoniae [1]): 0.125 µg/mL
ED50 (Streptococcus pneumoniae [3]): 10.3 mg/kg

CN(C)[C@@H]1C(O)=C(C(N)=O)C(=O)[C@@]2(O)C(O)=C3C(=O)c4c(O)c(NC(=O)CN5CCCC5)cc(F)c4C[C@H]3C[C@@H]12 [ERAVACYCLINE]
Cmax [28]: 160 ng/mL
Cmax [29]: 1900 ng/mL
bioavailability [30]: 28%
fraction unbound [24]: 0.13 to 0.21
AUC at 24 h [31]: 3100 ng·h/mL
half-life [32]: 10 to 14 h
AUC at 24 h [33]: 7900 ng·h/mL
clearance [34]: 297 mL/min

From ChEMBL document CHEMBL3868582, “Discovery, pharmacology, and clinical profile of omadacycline, a novel aminomethylcycline antibiotic” (Bioorg Med Chem, 2016)
